This is an account of results in patent publication US20120165332A1, “SULFONAMIDES AND SULFAMIDES AS ZAP-70 INHIBITORS” (Cellzome Limited, priority 2009, published 2012).

This experiment deals with T1, ZAP-70 (Homo sapiens, UniProt P43403).
T1 construct: endogenous in cells; host or cells: cell lysate
T1 sequence (P43403 1-619): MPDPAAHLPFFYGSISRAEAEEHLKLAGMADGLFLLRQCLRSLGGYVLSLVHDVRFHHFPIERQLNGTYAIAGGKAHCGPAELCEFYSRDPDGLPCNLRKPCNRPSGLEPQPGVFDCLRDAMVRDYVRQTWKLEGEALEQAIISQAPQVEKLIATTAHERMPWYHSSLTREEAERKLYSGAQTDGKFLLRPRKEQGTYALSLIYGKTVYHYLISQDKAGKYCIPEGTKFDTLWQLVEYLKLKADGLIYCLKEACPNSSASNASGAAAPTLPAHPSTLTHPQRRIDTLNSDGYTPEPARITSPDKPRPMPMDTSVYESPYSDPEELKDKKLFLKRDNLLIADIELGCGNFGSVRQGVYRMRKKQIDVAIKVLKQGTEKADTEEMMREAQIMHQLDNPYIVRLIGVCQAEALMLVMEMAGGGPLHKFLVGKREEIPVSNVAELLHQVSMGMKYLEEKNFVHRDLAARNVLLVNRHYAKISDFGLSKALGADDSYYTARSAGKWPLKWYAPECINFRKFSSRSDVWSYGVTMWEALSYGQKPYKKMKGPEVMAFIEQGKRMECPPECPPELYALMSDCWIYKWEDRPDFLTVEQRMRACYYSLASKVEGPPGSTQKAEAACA
The experiment is described as follows: ZAP-70 kinobeads assay. It counts as binding. To be noted: cell lysate, affinity matrix with immobilized aminopyrido-pyrimidine ligand 24, dot blot detection. Here is the method: The compounds of the present invention as described in the previous examples can be tested in the ZAP-70 kinobeads assay as described (EP-A 1862802 and WO-A 2007/137867). Briefly, test compounds (at various concentrations) and the affinity matrix with the immobilized aminopyrido-pyrimidine ligand 24 are added to cell lysate aliquots and allowed to bind to the proteins in the lysate sample. After the incubation time the beads with captured proteins are separated from the lysate. Bound proteins are then eluted and the presence ZAP-70 is detected and quantified using a specific antibody in a dot blot procedure and the Odyssey infrared detection system.

The term IC50 denotes the midpoint of a concentration-inhibition curve. A lower IC50 goes with greater potency. Take `COc1ccc(Nc2nc(Nc3cc(OC)c(OC)c(OC)c3)ncc2Cl)c(N(CCNC=O)S(C)(=O)=O)c1` [Example 8]: the IC50 is at most 100 nM. Regarding `CS(=O)(=O)N(CCN1CCOCC1)c1ccccc1Nc1nc(Nc2cccc(O)c2)ncc1F` [Example 32, N-(2-(5-fluoro-2-(3-hydroxyphenylamino)pyrimidin-4-ylamino)phenyl)-N-(2-morpholinoethyl)methanesulfonamide], the IC50 was 1000 to 10000 nM. The result for `COc1cc(Nc2ncc(Cl)c(Nc3ccccc3N(CCNC=O)S(C)(=O)=O)n2)cc(OC)c1OC` [Example 2, N-(2-(N-(2-(5-chloro-2-(3,4,5-trimethoxyphenylamino)pyrimidin-4-ylamino)phenyl)methylsulfonamido)ethyl)formamide] reads at most 100 nM. For `COc1ccc(Nc2nc(Nc3cc(OC)c(OC)c(OC)c3)ncc2Cl)c(N(CCNC(C)=O)S(C)(=O)=O)c1` [Example 30], the IC50 is at most 100 nM. Regarding `COc1cc(Nc2ncc(F)c(Nc3cccc(C)c3N(CCCC(N)=O)S(C)(=O)=O)n2)cc(OC)c1OC` [Example 25, 4-(N-(2-(5-fluoro-2-(3,4,5-trimethoxyphenylamino)pyrimidin-4-ylamino)-6-methylphenyl)methylsulfonamido)butanamide], the IC50 lay in the range of 1000 to 10000 nM. `COc1ccc(Nc2nc(Nc3cc(F)c(OC)cc3OC)ncc2Cl)c(N(CCN)S(C)(=O)=O)c1` [Example 10, N-(2-aminoethyl)-N-(2-(5-chloro-2-(5-fluoro-2,4-dimethoxyphenylamino)pyrimidin-4-ylamino)-5-methoxyphenyl)methanesulfonamide] gave an IC50 of 100 to 1000 nM. The molecule `COc1cc(Nc2ncc(F)c(Nc3cccc(C)c3N(CCNC(C)=O)S(C)(=O)=O)n2)cc(OC)c1OC` [Example 26, N-(2-(N-(2-(5-fluoro-2-(3,4,5-trimethoxyphenylamino)pyrimidin-4-ylamino)-6-methylphenyl)methylsulfonamido)ethyl)acetamide] gave an IC50 of 100 to 1000 nM.

`COc1ccc(Nc2nc(Nc3cc(OC)c(OC)c(OC)c3)ncc2Cl)c(N(C[C@H]2CCC(=O)N2)S(C)(=O)=O)c1` [Example 5, (R)—N-(2-(5-chloro-2-(3,4,5-trimethoxyphenylamino)pyrimidin-4-ylamino)-5-methoxyphenyl)-N-((5-oxopyrrolidin-2-yl)methyl)methanesulfonamide] displayed an IC50 of 1000 to 10000 nM. Regarding `COc1ccc(Nc2nc(Nc3cc(OC)c(OC)c(OC)c3)ncc2Cl)c(N(Cc2cnc[nH]2)S(C)(=O)=O)c1` [Example 1, N-((1H-imidazol-5-yl)methyl)-N-(2-(5-chloro-2-(3,4,5-trimethoxyphenylamino)pyrimidin-4-ylamino)-5-methoxyphenyl)methanesulfonamide], the IC50 fell in the range of 100 to 1000 nM. `COc1ccc(Nc2ncc(Cl)c(Nc3ccc(OC)cc3N(CCNC=O)S(C)(=O)=O)n2)c(OC)c1` [Example 11]: the IC50 fell in the range of 100 to 1000 nM. The result for `COc1cc(Nc2ncc(F)c(Nc3cccc(C)c3N(CC(N)=O)S(C)(=O)=O)n2)cc(OC)c1OC` [Example 14, 2-(N-(2-(5-fluoro-2-(3,4,5-trimethoxyphenylamino)pyrimidin-4-ylamino)-6-methylphenyl)methylsulfonamido) acetamide] reads 1000 to 10000 nM; that for `COc1ccc(Nc2nc(Nc3cc(OC)c(OC)c(OC)c3)ncc2Cl)c(N(CCCNC=O)S(C)(=O)=O)c1` [Example 12, N-(3-(N-(2-(5-chloro-2-(3,4,5-trimethoxyphenylamino)pyrimidin-4-ylamino)-5-methoxyphenyl)methylsulfonamido)propyl)formamide], at most 100 nM; that for `COc1cc(Nc2ncc(F)c(Nc3cccc(C)c3N(CCCN)S(C)(=O)=O)n2)cc(OC)c1OC` [Example 21, N-(3-aminopropyl)-N-(2-(5-fluoro-2-(3,4,5-trimethoxyphenylamino)pyrimidin-4-ylamino)-6-methylphenyl)methanesulfonamide], 100 to 1000 nM. In turn, `COc1cc(Nc2ncc(F)c(Nc3cccc(C)c3N(CCN)S(C)(=O)=O)n2)cc(OC)c1OC` [Example 19, N-(2-aminoethyl)-N-(2-(5-fluoro-2-(3,4,5-trimethoxyphenylamino)pyrimidin-4-ylamino)-6-methylphenyl)methanesulfonamide] gave a half-maximal inhibitory concentration (IC50) of 100 to 1000 nM. The molecule `COc1ccc(Nc2nc(Nc3cc(OC)c(OC)c(OC)c3)ncc2Cl)c(N(CN2CCCC2=O)S(C)(=O)=O)c1` [Example 3, N-(2-(5-chloro-2-(3,4,5-trimethoxyphenylamino)pyrimidin-4-ylamino)-5-methoxyphenyl)-N-((2-oxopyrrolidin-1-yl)methyl)methanesulfonamide] showed a concentration for half-maximal inhibition (IC50) of 1000 to 10000 nM. As for `COc1cc(Nc2ncc(F)c(Nc3cccc(C)c3N(CC#N)S(C)(=O)=O)n2)cc(OC)c1OC` [Example 17, N-(cyanomethyl)-N-(2-(5-fluoro-2-(3,4,5-trimethoxyphenylamino)pyrimidin-4-ylamino)-6-methylphenyl)methanesulfonamide], the figure is 1000 to 10000 nM; as for `COc1cc(Nc2ncc(F)c(Nc3cccc(C)c3N(CCCNC(C)=O)S(C)(=O)=O)n2)cc(OC)c1OC` [Example 27, N-(3-(N-(2-(5-fluoro-2-(3,4,5-trimethoxyphenylamino)pyrimidin-4-ylamino)-6-methylphenyl)methylsulfonamido)propyl)acetamide], 100 to 1000 nM; as for `COc1cc(Nc2ncc(F)c(Nc3cccc(C)c3N(CCO)S(C)(=O)=O)n2)cc(OC)c1OC` [Example 15, N-(2-(5-fluoro-2-(3,4,5-trimethoxyphenylamino)pyrimidin-4-ylamino)-6-methylphenyl)-N-(2-hydroxyethyl)methanesulfonamide], 1000 to 10000 nM. `COc1cc(Nc2ncc(F)c(Nc3cccc(C)c3N(CCC#N)S(C)(=O)=O)n2)cc(OC)c1OC` [Example 16, N-(2-cyanoethyl)-N-(2-(5-fluoro-2-(3,4,5-trimethoxyphenylamino)pyrimidin-4-ylamino)-6-methylphenyl)methanesulfonamide] registered a half-inhibitory concentration (IC50) of 100 to 1000 nM. As for `COC(=O)CCN(c1c(C)cccc1Nc1nc(Nc2cc(OC)c(OC)c(OC)c2)ncc1F)S(C)(=O)=O` [Example 22, Methyl 3-(N-(2-(5-fluoro-2-(3,4,5-trimethoxyphenylamino)pyrimidin-4-ylamino)-6-methylphenyl)methylsulfonamido)propanoate], the figure is 1000 to 10000 nM. As for `COC(=O)CN(c1c(C)cccc1Nc1nc(Nc2cc(OC)c(OC)c(OC)c2)ncc1F)S(C)(=O)=O` [Example 18, Methyl 2-(N-(2-(5-fluoro-2-(3,4,5-trimethoxyphenylamino)pyrimidin-4-ylamino)-6-methylphenyl)methylsulfonamido)acetate], the figure is 1000 to 10000 nM; as for `COc1cc(Nc2ncc(F)c(Nc3ccccc3N(CCN3CCCC3)S(C)(=O)=O)n2)cc(OC)c1OC` [Example 33, N-(2-(5-fluoro-2-(3,4,5-trimethoxyphenylamino)pyrimidin-4-ylamino)phenyl)-N-(2-(pyrrolidin-1-yl)ethyl)methanesulfonamide], 1000 to 10000 nM. As for `COc1ccc(Nc2nc(Nc3cc(OC)c(OC)cc3C)ncc2Cl)c(N(CCN)S(C)(=O)=O)c1` [Example 9, N-(2-aminoethyl)-N-(2-(5-chloro-2-(4,5-dimethoxy-2-methylphenylamino)pyrimidin-4-ylamino)-5-methoxyphenyl)methanesulfonamide], the IC50 was at most 100 nM.
